According to ChEMBL document CHEMBL3352100, “Visible light-induced nitric oxide release from a novel nitrobenzene derivative cross-conjugated with a coumarin fluorophore” (Bioorg Med Chem Lett, 2014):
Active and inactive are the calls of the source. The rule behind the calls is not given here.

What was measured:
[1] = Induction of nitric oxide release in potassium phosphate buffer at pH 7.35 at 100 uM photoirradiated with 180 mW/cm'2 light for 15 mins by LC/ESI-MS analysis in presence of Fe2+/MGD2 complex; assay type: physicochemical; conditions: pH 7.35, 0.25 h
[2] = system: HCT-116; assay: Induction of nitric oxide release in human HCT116 cells at 25 uM incubated for 3 hrs followed by […] irradiation by DAR-4M/AM staining-based fluorescence microscopy relative to control; assay type: functional, cell-based
[3] = Induction of nitric oxide release in potassium phosphate buffer at pH 7.35 at 100 uM photoirradiated with 15 mW/cm'2 light for 10 mins by spectrometric analysis in presence of Fe2+/MGD2 complex; assay type: physicochemical; conditions: pH 7.35, 10 min
[4] = Induction of nitric oxide release in potassium phosphate buffer at pH 7.35 at 500 uM photoirradiated with 190 mW/cm'2 light for 15 mins by LC/ESI-MS analysis in presence of Fe2+/MGD2 complex; assay type: physicochemical; conditions: pH 7.35, 0.25 h
[5] = Cellular uptake in human HCT116 cell cytoplasm at 100 uM by confocal fluorescence microscopy; assay type: ADME, cell-based; conditions: hct-116, 100 µM

| Activity [1] | Activity [3] | Activity [4] | Drug uptake [5] | SMILES | Activity [2] |
| --- | --- | --- | --- | --- | --- |
| Not Active |  |  |  | CCN(CC)c1ccc2c(C)c(/C=C/c3cc(C)c([N+](=O)[O-])c(C)c3)c(=O)oc2c1 |  |
|  | Active | Active | Active | Cc1cc(/C=C/c2cc(=O)oc3cc(O)c(Br)cc23)cc(C)c1[N+](=O)[O-] | Active |
